Here are results for 1 compound from patent US20230310390A1, “INHIBITORS OF SHORT-CHAIN DEHYDROGENASE ACTIVITY FOR TREATING NEURODEGENERATION” (CASE WESTERN RESERVE UNIVERSITY, priority 2020, published 2023).

What all share (type): in vivo
In assay [1] the test system is C57/B6 mice exposed to TBI. Put plainly: Morris water maze after TBI. The settings on record: for memory / cognitive impairment after TBI (MWM probe): 5 mg/kg twice daily started 24 hours after injury, tested 2 weeks after injury. The method, then:
(A) Experimental Timeline: 8 week old C57/B6 mice were exposed to sham-injury or TBI. Twice daily treatment with 5 mg/kg (+)-SW033291 or vehicle was started 24 hours after injury and continued throughout the duration of the experiment. Animals were tested for cognitive performance in the Morris water maze (MWM) 2 weeks after injury. (B) Animals were trained to find the hidden platform in the MWM for 4 consecutive days (4 trials/day), with performance measured as latency to find the hidden platform. […] (C, D) To probe for spatial memory of the learned location of the hidden platform, one day after the final learning day the animals were tested in the same MWM except the platform was removed. Memory was measured as latency to first cross the area where the platform was located and the number of times the animal crossed that area. […] Individual mouse data points are shown on the graph. Data was analyzed using two-way repeated measures ANOVA; * p<0.05, ** p<0.01, *** p<0.001. All data is mean±SEM

The test system of assay [2] is 5×FAD mice. The assay can be described thus: Amyloid plaque accumulation (Congo Red staining). The conditions noted are these: 5 mg/kg/day twice daily from 2 to 6 months. The method, then: Two month old 5×FAD and wild type (WT) littermates were treated with 5 mg/kg/day twice daily (+)-SW033291 (or vehicle) every day from 2 to 6 months. At 5 months of age, mice were injected with a single dose of 150 mg/kg bromodeoxyuridine (BrdU) to label replicating cells. At the age of 6 months (28 days after BrdU) mice were transcardially perfused and brains were dissected for examination of fixed tissue. […] Individual mouse data points are shown on the graph. Data was analyzed using two-way repeated measures ANOVA; * p<0.05, ** p<0.01, ***p<0.001, ****p<0.0001. All data is mean±SEM.

Assay [3] relates to eicosanoids. The assay can be described thus: Eicosanoid profiling by LC-MS/MS, left hippocampus of wild-type and 5×FAD mice. The conditions noted are these: 5 mk/kg twice daily for 4 weeks. Here is the method:
(§1) Eicosanoids were measured by methods of liquid chromatography with tandem mass spectrometry with the use of spiked in deuterated internal standards. Eicosanoids measured included: the 6-keto-PGF1 alpha (6-keto-PGF1a, a hydrolysis product of and proxy for prostacyclin), thromboxane B2 (TXB2, a metabolite/product of and proxy for thromboxane A2), PGD2, PGE2, 15-keto-PGE2 (produced by 15-PGDH degradation of PGE2), tetranor PGE1 (TN-E, a metabolic product produced by beta-oxidation of PGE2), PGJ2, PGF2 alpha (PGF2a), LTB4, 15-HETE, 12-HETE, 8-HETE, 5-HETE, 17-HDHA, 12,13-DiHOME, 14,15-DHET, 11,12-DHET.
FIG. 2 illustrates graphs showing comparison of eicosanoid values in brain of 6 month old male mice that are either wild-type or that are the 5×FAD strain of mice that model Alzheimer's disease. Beginning at 5 months of age both genotypes of mice were injected twice daily with either 5 mk/kg (+)-SW033291 or with matched vehicle control as described in Zhang et al. Science. 2015; 348(6240):aaa2340. PMCID: PMC4481126. Treatment continued twice daily for 4 weeks. Mice were sacrificed at 3 hours following their final injection. After sacrifice the left hippocampus was dissected, flash frozen, and powdered, and eicosanoids were extracted in aqueous buffer for analysis. Protein concentration of the extracts were assayed, and eicosanoid values were recorded as ng eicosanoid per mg protein.

The test system of assay [4] is 5×FAD mice. The assay can be described thus: Morris water maze in 5×FAD mice. The conditions noted are these: 5 mg/kg/day twice daily from 2 to 6 months. Here is the method:
(A) Experimental Timeline: Two month old 5×FAD and wild type (WT) littermates were treated with 5 mg/kg/day twice daily (+)-SW033291 (or vehicle) every day from 2 to 6 months. Cognitive performance was tested using Morris water maze (MWM) as shown in the timeline. (B) Animals were trained to find the hidden platform in the MWM maze for 3 consecutive days (4 trials/day), and latency to find the hidden platform was measured. […] (C) To probe for spatial memory of the hidden platform, one day after the last learning day the animals were tested in the same MWM, except the platform was removed. Memory was measured as latency to first cross the area where the platform was located and the number of times an animal crossed that area. […] Individual mouse data points are shown on the graph. Data was analyzed using two-way repeated measures ANOVA; * p<0.05, ** p<0.01, *** p<0.001. All data is mean±SEM.

Assay [5] deals with eicosanoids. Put plainly: Eicosanoid profiling by LC-MS/MS, brain hemispheres of mice after sham or traumatic brain injury (TBI). The settings on record: for eicosanoid values in left hemisphere / eicosanoid values in right hemisphere (trends): 5 mk/kg twice daily for 21 days. The method, then: as §1
FIGS. 4-6 illustrate graphs showing comparisons of eicosanoid values in brain of wild-type male mice who at 8 weeks of age were subjected to sham or actual traumatic brain injury (TBI) delivered by blast wave to the left skull. 24 hours following sham or actual TBI treatment commenced by injection twice daily with either 5 mk/kg (+)-SW033291 or with matched vehicle control as described in Zhang et al. Science. 2015; 348(6240):aaa2340. PMCID: PMC4481126. Treatment continued for 21 days until mice reached 11 weeks of age. Three hours following the last injection, mice were sacrificed. After sacrifice the right or left hemisphere of the brain was dissected, flash frozen, and powdered, and eicosanoids were extracted in organic solvent for analysis. Values were normalized to the wet weight of the companion contralateral brain hemispheres and are recorded as ng eicosanoid per gm wet weight of tissue.

[6] abbreviates: MWM probe test, TBI mice, 5 mg/kg twice daily.
[7] abbreviates: 5×FAD mice, versus vehicle control treated 5×FAD mice.
Where [8] appears, read: following TBI, compared to vehicle treated mice.
Where [9] appears, read: sham mice, compared to vehicle treated sham mice.

The structures appear in SMILES notation. “Also recorded” adds a separate entry of the source.

Consider `CCCC[S+]([O-])c1sc2nc(-c3cccs3)cc(-c3ccccc3)c2c1N` (single isomer, unassigned; (+)) [(+)-SW033291], for which, in assay [1] (setting [6]), the “average latency to crossing the platform area” value is “significantly increased in the vehicle-treated TBI-injured group compared to all other groups”. The “number of platform crosses” value is listed as “significantly decreased in the vehicle-treated TBI-injured group compared to all other groups” in assay [1] (setting [6]) and “significantly decreased in the vehicle-treated 5×FAD group compared to the other groups” in assay [4] (MWM probe test, 5×FAD mice). The “average (escape) latency to find the hidden platform (learning)” value is recorded as “not different between groups” in assay [1] (TBI and sham-injured mice, 4-day learning period, 5 mg/kg twice daily); “not different between groups” in assay [4] (5×FAD and WT mice, 3 consecutive days). Besides, the “memory / cognitive impairment after TBI (MWM probe)” value is given as “TBI-injured animals treated with vehicle showed memory deficits compared to the (+)-SW033291-treated TBI group” in assay [1] (TBI mice, 5 mg/kg) and “protects wild type mice from cognitive impairment after TBI” in assay [1] (TBI mice, listed as (+)-SW033921, 5 mg/kg). In addition, the “amyloid plaque accumulation (Congo Red staining)” value in assay [2] is recorded as “does not alter amyloid plaque accumulation; also recorded: does not affect accumulation of amyloid plaque”. Further, the “TXB2 in left hippocampus” value in assay [3] (setting [7]) was “significant increase in TXB2”. The “eicosanoid values in left hippocampus (trends)” value is “a trend to increased 6-keto-PGF1a, PGD2, PGE2, PGJ2, PGF2a” in assay [3] (setting [7]); “trends for increases in 6-keto-PGF1a, PGD2, PGE2, PGF2a, and 9,10-DiHOME” in assay [3] (wild-type mice, versus vehicle treated mice). Besides, the “memory deficit / cognitive function (MWM probe)” value in assay [4] (5×FAD mice, 5 mg/kg/day) is on record as “alleviated this deficit”; in assay [4] (5×FAD mice, listed as (+)-SW033921, 5 mg/kg/day), “protects cognitive function in 5×FAD mice”. Also, the “left hemisphere values of PGJ2, TN-E, 15-HETE, and 9,10-DiHOME” value in assay [5] (TBI treated mice versus sham injury vehicle treated mice) is reported as “restoration”. Further, the “eicosanoid values in left hemisphere” value in assay [5] (setting [8]) was “significantly increased PGJ2, TN-E, 15-HETE, 8-HETE, 5-HETE, 9,10-DiHOME, and LTB4”; in assay [5] (setting [9]) it was “significantly decreased PGE2, PGF2a, 6-keto-PGF1a, PGD2, PGJ2, TN-E, TxB2, 15-HETE, 12-HETE, 9,10-DiHOME”. The “eicosanoid values in right hemisphere (trends)” value in assay [5] (setting [8]) was “trends toward decreased PGJ2, and TxB2”; in assay [5] (setting [9]), “a trend toward increased PGE2, 15-keto-PGE2, PGF2a, TN-E, 15-HETE, 12-HETE, 8-HETE, 5-HETE, and LTB4”.
